Assay results reported in ChEMBL document CHEMBL1201862, “PubChem BioAssay data set” (2004).
Active and inactive are the calls of the source.

Tests used:
[1] = biological target: T1, Corticotropin-releasing factor receptor 2/Corticotropin-releasing factor-binding protein (Homo sapiens, UniProt P24387+Q13324); test: Dose Response confirmation of uHTS hits for small molecule antagonists of the CRF-binding protein and CRF-R2 receptor complex.; type: functional; settings: read-out: IC50_Mean
T1 sequence (Q13324 whole entry): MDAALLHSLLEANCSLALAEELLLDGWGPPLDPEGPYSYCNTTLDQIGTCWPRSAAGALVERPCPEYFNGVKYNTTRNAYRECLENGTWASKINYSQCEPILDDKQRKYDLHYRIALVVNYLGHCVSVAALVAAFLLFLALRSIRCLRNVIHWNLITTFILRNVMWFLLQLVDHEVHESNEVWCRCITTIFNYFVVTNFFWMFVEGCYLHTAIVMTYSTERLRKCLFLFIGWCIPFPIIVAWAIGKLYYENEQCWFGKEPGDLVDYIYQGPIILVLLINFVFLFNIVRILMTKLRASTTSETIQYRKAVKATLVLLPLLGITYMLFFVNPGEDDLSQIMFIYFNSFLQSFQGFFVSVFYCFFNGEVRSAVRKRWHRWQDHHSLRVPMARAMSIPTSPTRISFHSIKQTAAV
T1 sequence (P24387 whole entry): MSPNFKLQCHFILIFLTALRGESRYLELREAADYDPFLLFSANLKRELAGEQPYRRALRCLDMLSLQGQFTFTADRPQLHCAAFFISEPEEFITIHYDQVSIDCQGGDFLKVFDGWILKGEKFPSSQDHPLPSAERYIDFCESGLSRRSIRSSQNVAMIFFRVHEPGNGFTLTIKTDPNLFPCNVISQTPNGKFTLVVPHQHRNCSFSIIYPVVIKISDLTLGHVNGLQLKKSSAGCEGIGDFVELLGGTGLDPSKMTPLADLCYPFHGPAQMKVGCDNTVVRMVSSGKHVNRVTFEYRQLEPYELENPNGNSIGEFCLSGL

[2] = biological target: T1, Corticotropin-releasing factor receptor 2/Corticotropin-releasing factor-binding protein; test: activators of CRF receptor 2 with binding protein – uHTS hits, confirmation (AID 602473); type: functional; settings: read-out: EC50_Mean
[3] = tested on: H9c2; test: cells; type: functional, cell-based; settings: Rattus norvegicus, H9c2, Myocardium;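 further: confirmatory concentration-response retest of ultra-high-throughput screening hits for modulation of myocardial damage; cell death induced by hydrogen peroxide oxidative stress; compound pretreatment for 60 min then peroxide exposure for 2 h; potency is for protecting the cells against peroxide damage rather than for killing them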
[4] = microbe, parasite or virus in culture; type: functional; settings: Mycobacterium tuberculosis
[5] = biological target: T2, Cytochrome P450 1A2 (Homo sapiens, UniProt P05177);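 further: PubChem cytochrome P450 panel assay, CYP1A2 panel member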
T2 sequence (P05177 whole entry): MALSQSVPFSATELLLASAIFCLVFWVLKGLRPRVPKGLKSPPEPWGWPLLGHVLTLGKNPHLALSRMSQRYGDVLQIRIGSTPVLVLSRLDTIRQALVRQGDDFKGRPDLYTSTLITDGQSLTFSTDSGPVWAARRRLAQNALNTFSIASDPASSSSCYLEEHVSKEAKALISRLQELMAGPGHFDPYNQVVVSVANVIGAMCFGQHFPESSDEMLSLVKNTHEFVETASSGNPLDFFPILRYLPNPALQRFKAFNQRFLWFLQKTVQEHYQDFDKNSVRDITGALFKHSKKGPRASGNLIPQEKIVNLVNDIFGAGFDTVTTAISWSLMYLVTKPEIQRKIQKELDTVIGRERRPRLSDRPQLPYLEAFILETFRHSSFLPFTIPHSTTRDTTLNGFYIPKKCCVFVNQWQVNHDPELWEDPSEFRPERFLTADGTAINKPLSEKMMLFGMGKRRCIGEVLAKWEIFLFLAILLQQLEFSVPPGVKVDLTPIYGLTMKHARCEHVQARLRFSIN

[6] = biological target: Cytochrome P450 2D6 (Homo sapiens, UniProt P10635);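 further: CYP2D6 member of a cytochrome P450 panel assay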
[7] = biological target: Cytochrome P450 3A4 (Homo sapiens, UniProt P08684);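 further: CYP3A4 tested as one member of a cytochrome P450 panel screen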
[8] = biological target: Cytochrome P450 2C19 (Homo sapiens, UniProt P33261); test: Cytochrome panel assay with activity outcomes. Panel member name: p450-cyp2c19 Compounds with AC50 equal or less than 10 uM are considered active; type: functional
[9] = Luminescence Cell-Based Dose Response HTS to Identify Activators of Luciferase Translation or Activity in H4 […] Cells. [Related pubchem assays: 1829 (Project Summary), 1814 (Primary HTS)]; type: functional
[10] = cytotoxicity toward NIH3T3 fibroblasts, dose response, counter-screen, cell-based, ATP luminescence, mouse fibroblasts (AID 2010); type: functional;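 further: cells exposed to compound for about 90 hours before reading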
[11] = inhibitors of intracellular T. cruzi replication, confirmation, NIH3T3 host cells, beta-gal luminescence (AID 2044); type: functional, cell-based;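 further: intracellular parasites grown in NIH/3T3 mouse fibroblasts as host cells; luminescent beta-galactosidase reporter signal from transgenic T. cruzi replicating inside host cells; inhibitors lower the luminescence signal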
[12] = tested on: Streptococcus sp. 'group A'; test: growth inhibition of control SK(-) GAS strain, dose response, counter-screen for streptokinase expression inhibitor project, luminescence, kanamycin, BacTiterGlo, confirmation (AID 1900); type: functional, organism-based
[13] = tested on: Streptococcus; test: Group A Streptococcus viability loss, dose response, counter-screen for streptokinase expression inhibitor project, luminescence, BacTiterGlo (AID 1915); type: functional, organism-based;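 further: potency for reduction of bacterial viability or growth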

Chain of Cytochrome P450 2D6 (P10635 whole entry): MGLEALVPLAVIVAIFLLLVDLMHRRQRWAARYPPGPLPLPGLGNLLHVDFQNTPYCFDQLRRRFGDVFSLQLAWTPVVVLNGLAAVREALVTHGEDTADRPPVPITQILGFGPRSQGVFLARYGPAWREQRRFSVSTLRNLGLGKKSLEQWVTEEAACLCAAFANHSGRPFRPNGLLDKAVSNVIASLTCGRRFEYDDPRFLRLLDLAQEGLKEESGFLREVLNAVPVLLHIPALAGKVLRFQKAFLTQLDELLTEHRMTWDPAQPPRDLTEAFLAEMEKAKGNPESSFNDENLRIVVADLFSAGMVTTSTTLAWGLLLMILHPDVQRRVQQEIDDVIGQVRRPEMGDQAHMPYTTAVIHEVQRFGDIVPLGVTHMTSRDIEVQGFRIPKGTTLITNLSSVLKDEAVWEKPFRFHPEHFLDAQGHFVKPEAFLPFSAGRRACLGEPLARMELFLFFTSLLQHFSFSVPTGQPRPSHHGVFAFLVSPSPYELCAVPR
Chain of Cytochrome P450 3A4 (P08684 whole entry): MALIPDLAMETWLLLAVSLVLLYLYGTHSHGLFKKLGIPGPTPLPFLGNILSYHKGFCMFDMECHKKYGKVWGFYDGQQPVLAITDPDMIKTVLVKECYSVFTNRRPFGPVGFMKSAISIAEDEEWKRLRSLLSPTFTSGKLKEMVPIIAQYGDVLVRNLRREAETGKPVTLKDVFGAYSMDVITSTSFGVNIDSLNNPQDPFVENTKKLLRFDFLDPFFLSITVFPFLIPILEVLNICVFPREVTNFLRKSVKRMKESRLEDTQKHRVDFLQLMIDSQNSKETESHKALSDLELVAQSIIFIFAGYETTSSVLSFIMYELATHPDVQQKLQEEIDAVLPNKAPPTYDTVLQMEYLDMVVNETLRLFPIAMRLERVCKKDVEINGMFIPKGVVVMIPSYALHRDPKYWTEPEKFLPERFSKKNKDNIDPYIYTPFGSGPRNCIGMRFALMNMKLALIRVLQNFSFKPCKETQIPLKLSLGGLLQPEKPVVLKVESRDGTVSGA
Chain of Cytochrome P450 2C19 (P33261 whole entry): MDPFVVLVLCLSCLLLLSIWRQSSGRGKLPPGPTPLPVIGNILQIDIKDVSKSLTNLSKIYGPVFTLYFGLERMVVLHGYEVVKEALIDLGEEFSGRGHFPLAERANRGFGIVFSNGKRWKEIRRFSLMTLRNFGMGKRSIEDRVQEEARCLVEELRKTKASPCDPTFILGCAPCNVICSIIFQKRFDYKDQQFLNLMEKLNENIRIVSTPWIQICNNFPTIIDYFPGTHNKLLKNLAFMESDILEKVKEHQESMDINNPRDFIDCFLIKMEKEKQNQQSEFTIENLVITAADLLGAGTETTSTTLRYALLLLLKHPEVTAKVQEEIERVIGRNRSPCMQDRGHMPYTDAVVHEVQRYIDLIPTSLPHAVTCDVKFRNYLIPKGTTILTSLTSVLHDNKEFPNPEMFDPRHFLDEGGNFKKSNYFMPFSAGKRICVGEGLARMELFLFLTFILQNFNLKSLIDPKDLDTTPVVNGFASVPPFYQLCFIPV

SMILES: NC(=O)c1ccc(NCC2COc3ccccc3O2)c([N+](=O)[O-])c1 (centres undefined)
- IC50 [1]: > 47.1 µM (inactive)
- EC50 [2]: > 53 µM (inactive)

SMILES: Cc1[nH]c(=O)[nH]c(=O)c1S(=O)(=O)N1CCCC(C(=O)N2CCN(c3ccccc3Cl)CC2)C1 (centres undefined)
- IC50 [1]: > 47.1 µM (inactive)
- EC50 [2]: > 53 µM (inactive)

SMILES: O=C1CCc2cc(S(=O)(=O)N3CCC(C(=O)NC4CCCCCCC4)CC3)ccc2N1
- IC50 [1]: > 47.1 µM (inactive)
- EC50 [2]: 34 µM (active)

SMILES: O=C(CCCSc1nc(O)c2c3c(sc2n1)CCC3)NCCO
- IC50 [3]: > 79 µM (inactive)

SMILES: Cc1ccc2nc(N/N=C/c3ccccc3C#N)nc(-c3ccccc3)c2c1
- CC50 [4]: 28.8 µM (active)

SMILES: Cn1c(C(=O)NCCc2ccsc2)cc2c(=O)n(C)c3ccccc3c21
- IC50 [3]: > 79 µM (inactive)

SMILES: Cn1cc(-c2nc3cnc(N4CCNCC4)nc3n(Cc3ccc(F)cc3)c2=O)c2ccccc21
- AC50 [5]: 20 µM (inconclusive)
- AC50 [6]: 20 µM (inconclusive)

SMILES: CCOC(=O)C(Cc1ccc(NC(=O)/C(=C/c2ccc(OC(C)=O)cc2)NC(C)=O)cc1)N1C(=O)c2ccccc2C1=O (centres undefined)
- IC50 [3]: > 79 µM (inactive)

SMILES: O=C(CSc1ccc(Cl)cc1)N1CCC(c2nc3ccccc3s2)CC1
- CC50 [4]: 34.7 µM (active)

SMILES: CCN1CCN(C(=O)C2c3cc(OC)c(OC)cc3C(=O)N3CCc4ccccc4C23)CC1 (centres undefined)
- AC50 [7]: 28.2 µM (inconclusive)
- AC50 [8]: inconclusive

SMILES: O=C(Nc1cccc(O)c1)c1ccc(NC(=O)c2cccs2)cc1
- IC50 [1]: > 47.1 µM (inactive)
- EC50 [2]: > 53 µM (inactive)

SMILES: CCOC(=O)c1sc(NC(=O)C(C)(C)C)cc1C
- EC50 [9]: 13 µM (active)

SMILES: CCN(CC(=O)Nc1c(F)cccc1F)C(=O)c1ccc2c(=O)n3c(nc2c1)CCC3
- IC50 [1]: > 47.1 µM (inactive)
- EC50 [2]: > 53 µM (inactive)

SMILES: Cc1cc(OCc2nc(N)nc(N)c2-c2ccc(Cl)c(Cl)c2)ccc1[N+](=O)[O-]
- AC50 [7]: 3.98 µM (inconclusive)
- AC50 [5]: 5.01 µM (inconclusive)

SMILES: O=C(c1ccccc1)c1c[nH]c(C(=O)NCc2cccnc2)c1
- AC50 [6]: 15.8 µM (inconclusive)

SMILES: COc1cccc(C(=O)Nc2cc(C)c3c(=O)oc4ccccc4c3n2)c1
- IC50 [3]: > 79 µM (inactive)

SMILES: C/C(=N\Nc1ccc(S(=O)(=O)N2CCCCC2)cn1)c1cccc(Br)c1
- CC50 [4]: > 40 µM (active)

SMILES: Fc1ccc(Nc2ccnc(-c3ccoc3)n2)cc1
- AC50 [6]: 20 µM (inconclusive)

SMILES: Cc1ccccc1Cn1c(=O)sc2ccccc2c1=O
- IC50 [1]: > 47.1 µM (inactive)
- EC50 [2]: > 53 µM (inactive)

SMILES: O=C(C[C@H]1C/C=C\CC[C@H](Cc2ccc(F)cc2)C(=O)O[C@@H](c2ccccc2)CNC1=O)N[C@H](CO)Cc1ccccc1
- IC50 [3]: > 79 µM (inactive)

SMILES: COc1ccccc1-n1c(SCC(=O)Nc2ccccc2F)nc2nncc-2c1O
- AC50 [5]: 28.2 µM (inconclusive)
- AC50 [6]: 8.91 µM (inconclusive)

SMILES: Clc1nc2c(-c3ccccc3)nnn2c2ccccc12
- EC50 [10]: > 60 µM (not active)
- CC50 [4]: 27.3 µM (active)
- EC50 [11]: 2.55 µM (active)

SMILES: O=C(CN1CCCCC1)Nc1nc(-c2ccc(F)c(F)c2)cs1
- IC50 [3]: > 79 µM (inactive)

SMILES: O=C(NC(=S)N1CCN(c2nc(-c3ccccc3)cs2)CC1)c1cncc(Br)c1
- EC50 [12]: 3.04 µM (active)
- EC50 [13]: 3.91 µM (active)

SMILES: C/C(CCN1CCCCc2nc(C)c(C)cc21)=N\OC[C@@H](O)COCc1ccco1
- AC50 [6]: 7.94 µM (inconclusive)

SMILES: CCn1nc(C(=O)NNC(=O)c2cc(Cl)ccc2OC)c2ccccc2c1=O
- IC50 [3]: > 79 µM (inactive)
